Test results published in patent publication US20180104232A1, “METHODS FOR DETERMINING PROGNOSIS FOR BREAST CANCER PATIENTS” (The University of Chicago, priority 2015, published 2018).

Experiments:
[1] = test system: human TNBC BM1 cells; test: Relative CCL5 mRNA in BM1 cells treated with JQ1; assay type: cell-based; conditions: 300 nM JQ1, GAPDH loading control
Method: (§1) FIG. 21: Relative levels of HMGA2 (first bar of each set) and CCL5 (second bar of each set) are shown for the human triple-negative BM1 cell line (top) and the mouse basal-like breast cancer M6C cell line (bottom) treated with the bromodomain inhibitor JQ1, known to block HMGA2 activity. Relative levels of mRNA were calculated using the formula RQ=2-^˜˜CT with GAPDH as the loading control*0.05>p>0.01 ***0.001>p.
(§2) To overcome resistance to Maraviroc and increased CCL5 levels, the inventors are treating the tumor cells with JQ1, a bromodomain inhibitor which regulates HMGA2. HMGA2 is an upstream regulator of CCL5. Additionally, both genes expression levels are included in our prognostic signature. […] We plan to in the future test whether JQ1 in conjunction with Maraviroc are able to lead to a reduction in metastasis in a mouse model.

[2] = test system: mouse basal-like M6C cells; test: Relative CCL5 mRNA in M6C cells treated with JQ1; assay type: cell-based; conditions: 300 nM JQ1, GAPDH loading control
Method: as §1, §2

[3] = test system: tumors in nude mice; test: Treatment of tumor-bearing nude mice with A23 and/or Maraviroc (tumor weight, growth, intravasation); assay type: in vivo, mouse; conditions: agent alone; nude mice treated for 21 days starting at day 3
Excerpt: B) The corresponding growth curves for the treated mice.

[4] = test system: CCL5; conditions: tumor cells isolated from treated mice
Method: (§3) FIG. 20A-F: A) Final tumor weights shown for nude mice treated with the anti-Progranulin neutralizing antibody A23 alone or in combination with the CCR5 inhibitor Maraviroc for 21 days starting at day 3. B) The corresponding growth curves for the treated mice. Tumor volume is calculated as (π/6)*length2*width C) To measure the _rst step of metastasis we examine the relative number of tumor cells intravasating into the blood stream. This is calculated as the relative amount of human GAPDH compared to mouse Gapdh mRNA from cells isolated from blood after treatment. D) Tumor-associated macrophages were isolated from treated mice and qRT-PCR was performed to determine the relative amount of mRNA with Gapdh serving as the loading control; each set of four bars is data from the control, A23, Maraviroc, and A23+Maraviroc, respectively. E-F) Tumor cells were isolated from tumors stripped of mouse cells. RNA was collected and Relative CCL5 and Progranulin (GRN) were calculated with GAPDH as a loading control. *0.05>p>0.01 ** 0.01>p>0.001

[5] = test system: CCL7; conditions: TAMs isolated from treated mice
Method: as §3

Compound | CCL5 expression [1] | CCL5 expression [2] | effectiveness of treatment in tumor-bearing mice [3] | CCL5 secreted by tumor cells in response to therapy [4] | CCL7 in the tumor-associated macrophages [5]
Cc1sc2c(c1C)C(c1ccc(Cl)cc1)=N[C@@H](CC(=O)OC(C)(C)C)c1nnc(C)n1-2 [JQ1] | significant reduction | significant reduction |  |  | 
Maraviroc |  |  | not effective | more CCL5 | more CCL7
